Test results taken from patent publication US5635510A, “Substituted pyrrolidin-3-yl-alkyl-piperidines” (Merrell Pharmaceuticals Inc., priority 1994, dated 1997).

Experiments:
[1] = biological target: T1, NK-3 receptor (Cavia porcellus, UniProt P30098); experiment: Antagonism of iodinated eledoisin binding to NK3 receptor, guinea pig cerebral cortex
T1 construct: evaluated in freshly collected guinea pig cerebral cortex; from tissue; host or cells: guinea pig cerebral cortex
T1 sequence (P30098 1-440): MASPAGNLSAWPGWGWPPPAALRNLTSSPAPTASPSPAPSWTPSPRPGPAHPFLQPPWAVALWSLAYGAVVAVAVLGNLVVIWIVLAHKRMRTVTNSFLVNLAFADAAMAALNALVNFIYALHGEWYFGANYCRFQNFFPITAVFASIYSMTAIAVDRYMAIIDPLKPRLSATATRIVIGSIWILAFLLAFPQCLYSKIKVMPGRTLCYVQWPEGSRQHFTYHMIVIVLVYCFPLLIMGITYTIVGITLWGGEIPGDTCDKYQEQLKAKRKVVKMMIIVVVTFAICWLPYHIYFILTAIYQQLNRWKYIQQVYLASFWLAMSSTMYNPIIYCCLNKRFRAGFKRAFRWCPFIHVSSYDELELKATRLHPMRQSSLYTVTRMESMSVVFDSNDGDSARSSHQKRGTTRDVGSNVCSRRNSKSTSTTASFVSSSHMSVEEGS
Procedure: ANTAGONISM OF IODINATED TACHYKININ BINDING TO NK1 AND NK2
RECEPTORS BY PUTATIVE ANTAGONISTS
The NK1 receptor affinity of proposed tachykinin antagonists was evaluated in guinea pig lungs (Keystone Biologicals, Cleveland, OH), affinity for the NK2 receptor evaluated in HSKR-1 cells (which are mouse 3T3 fibroblasts expressing the human jejunal NK2 receptor) and NK-3 receptor affinity was evaluated in freshly collected guinea pig cerebral cortex. Tissues or cells were homogenized with a Polytron in 15 volumes of 50 mM Tris-HCl buffer (pH 7.4, 4° C.) and centrifuged. The pellet was resuspended in Tris-HCl buffer and was centrifuged; the pellet was washed twice by resuspension. The final pellet was resuspended at a concentration of 40 mg/ml for tissues (guinea pig lung and cerebral cortex) and 20 mg/ml for cells in incubation buffer and remained at room temperature for at least 15 min prior to use. Receptor binding was initiated by addition of 250 ul membrane preparation in duplicate to 0.1 nM of the following radioligands: ^125 I-Bolton Hunter Lys-3 labeled substance P; ^125 iodohistidyl-1-neurokinin A; and ^125 I-Bolton Hunter labeled Lys-4 eledoisin in a final volume of 500 ul of buffer containing 50 mM Tris-HCl (pH 7.4 at room temperature), 0.1% bovine serum albumin, 2 mM MnCl2, 40 ug/ml bacitracin, 4 μg/ml leupeptin and chymostatin, 1 μM thiorphan and various doses of the putative tachykinin antagonists. Incubations were performed at room temperature for 90 min (NK1 receptor assays) or 2 hr (NK2 and NK3 receptor assays); binding was terminated by addition of 50 mM Tris-HCl buffer (pH 7.4, 4° C.) and filtration under vacuum through GF/B filters presoaked with 0.1% polyethyleneimine (NK1 receptor assays) or 0.5% bovine serum albumin (NK2 and NK3 receptor assays). Filter bound radioactivity was quantitated in a gamma counter. […] Specific binding was calculated by subtracting nonspecific binding from total binding. Competition of iodinated SP, NKA, or eledoisin binding by test compounds or standards was expressed as a percentage of this maximum competition. […]

[2] = test system: NK1 and NK2 receptors; experiment: Modulation of respiratory effects produced by capsaicin aerosol in conscious guinea pigs; type: in vivo, guinea pig; settings: for dyspnea onset / maximum pressure increase: capsaicin aerosol; for dyspnea onset / maximum pressure increase / SRE number (coughs/gasps): mean and SEM; for SRE number (coughs/gasps): during 19 min capsaicin exposure; for dyspnea incidence: i.v. 20 min prior to capsaicin aerosol (0.001%)
Procedure: In vivo experiments were performed using male Duncan Hartley guinea pigs (250-350g). Changes in conscious breathing patterns were monitored in four animals simultaneously using modified whole body plethysmography consisting of four small plexiglass boxes each connected to a reference box via Validyne DP 45-16 differential pressure transducers. The 4 boxes were equipped with an air supply line (also used for aerosol delivery) and an exhaust air line. Supply and exhaust lines were of the same length and narrow bore and arose from a common supply chamber and vented to a common exhaust chamber. This system was used to ensure that fluctuations in supply air and atmospheric pressure would remain in phase and be eliminated from the net signal by the differential pressure transducers. The analog pressure signals were digitalized via a Data Translation DT2821 A to D board. Data were collected at a rate of 100 samples/second/animal. Each cycle of pressure change was analyzed using the following parameters: rising and falling slope determined between minimum and maximum pressures, the ratio of rising over falling slope, and the magnitude of the change between initial trough pressure and peak cycle pressure. Using these values (and observing the animals) the pressure cycles were characterized into normal breaths, forced exhalations (apparent by abdominal heaving), significant respiratory events (SREs; usually coughs, less often sneezes or gasps which were characterized by transient, extremely large pressure increases which were distinguishable from noise) and movement/noise with a PCAT 286 running a System V UNIX operating system. Dyspnea was defined as a significant, sustained increase in plethysmograph pressure which was associated with an observable shift to labored breathing in the animal.
During the course of a typical experiment in which airway responsiveness to various bronchoconstricting agents was examined, aerosols were delivered for 19 min (0.33 ml/min) using a DeVilbiss Ultraneb 99 ultrasonic nebulizer and animals monitored during this time. Prior to nebulization, 1 min of resting breathing was collected to establish a baseline pressure. […] The vehicle for nebulization of all bronchoconstrictive agents was phosphate buffered saline (pH 7.4) which elicited no respiratory effects itself. Putative tachykinin antagonists were administered either (i.v.) 20 min prior to onset of aerosol exposure or orally 1 hour prior to onset (to guinea pigs after an overnight fast).
Capsaicin aerosol is known to promote release of the tachykinins SP and NKA from sensory nerves in the airways of guinea pigs which may then act upon NK1 and NK2 receptors, respectively to elicit respiratory effects.

Molecule `COc1cc(C(=O)N2CCC(CCN3CCC(C(N)=O)(c4ccccc4)CC3)(c3ccc(Cl)c(Cl)c3)C2)cc(OC)c1OC` (single isomer, unassigned; (+)) [Example 20, (+)-1-[2-[3-(3,4-dichloro-phenyl)-1-(3,4,5-trimethoxy-benzoyl)-pyrrolidin-3-yl]-ethyl]-4-phenylpiperidine-4-carboxylic acid amide] has an IC50 ([1]; NK-3 IC50, guinea pig cerebral cortex, 125I-eledoisin, mean of several experiments) of 21 nM.

For `COc1cc(C(=O)N2CCC(CCN3CCC(C(N)=O)(c4ccccc4)CC3)(c3ccc(Cl)c(Cl)c3)C2)cc(OC)c1OC.Cl` (single isomer, unassigned; (+)) [Example 20A, (+)-1-[2-[3-(3,4-dichloro-phenyl)-1-(3,4,5-trimethoxy-benzoyl)-pyrrolidin-3-yl]-ethyl]-4-phenyl-piperidine-4-carboxylic acid amide hydrochloride], the dyspnea onset ([2]; 1 mg/kg i.v.) was 331 ± 22 s, the maximum pressure increase ([2]; 1 mg/kg i.v.) was 1.0 ± 0.1 mmH2 O and the “SRE number (coughs/gasps)” value ([2]; 1 mg/kg i.v.) was 9.9 ± 2.7. The dyspnea incidence ([2]; 1 mg/kg) was 77.8%, the dyspnea onset ([2]; 2.5 mg/kg i.v.) was 426 ± 57 s and the maximum pressure increase ([2]; 2.5 mg/kg i.v.) was 0.6 ± 0.1 mmH2 O. The “SRE number (coughs/gasps)” value ([2]; 2.5 mg/kg i.v.) was 8.3 ± 1.6, the dyspnea incidence ([2]; 2.5 mg/kg) was 100% and the dyspnea onset ([2]; 5 mg/kg i.v.) was 597 ± 186 s. For the same molecule, the maximum pressure increase ([2]; 5 mg/kg i.v.) was 0.8 ± 0.06 mmH2 O, the “SRE number (coughs/gasps)” value ([2]; 5 mg/kg i.v.) was 4.4 ± 1.9 and the dyspnea incidence ([2]; 5 mg/kg) was 44.4%. For the same molecule, the dyspnea onset ([2]; 10 mg/kg i.v.) was 592 ± 71 s, the maximum pressure increase ([2]; 10 mg/kg i.v.) was 0.8 ± 0.1 mmH2 O and the “SRE number (coughs/gasps)” value ([2]; 10 mg/kg i.v.) was 3.3 ± 1.1. The dyspnea incidence ([2]; 10 mg/kg) was 55.6% and the “effect on capsaicin-induced respiratory effects (in words)” value ([2]; intravenous) was “attenuate capsaicin-induced respiratory effects”.

For `COc1cc(C(=O)N2CCC(CCN3CCC(C(N)=O)(c4ccccc4)CC3)(c3ccc(Cl)c(Cl)c3)C2)cc(OC)c1OC` (stereo not shown) [Example 3, 1-[2-[3-(3,4-dichloro-phenyl)-1-(3,4,5-trimethoxy-benzoyl)-pyrrolidin-3-yl]-ethyl]-4-phenyl-piperidine-4-carboxylic acid amide], the “affinity for NK3 receptors (in words)” value ([1]; guinea pig cerebral cortex) was “high affinity”.
